Read-outs that look alike come from different tables or passages of the source.
Legend:
[1] = molecular target: T1, c-Met kinase domain recombinant protein (Homo sapiens, UniProt P08581); assay: biochemical; conditions: read-out: Inhibition rate at 10 μM (%)
T1 construct: 50 μL diluted solution of c-Met kinase domain recombinant protein in reaction buffer was added to initiate the reaction
Experimental: (§1) Enzymatic reaction substrate Poly(Glu,Tyr)4:1 was diluted to 20 μg/mL in potassium ion free PBS (10 mM sodium phosphate buffer, 150 mM NaCl, pH7.2-7.4), microplate was coated with this solution at 125 μL per well, and reacted at 37° C. for 12-16 hours. Liquid in wells was discarded. Plate washing: the plate was washed 3 times for 5 minutes each with 200 μL per well of T-PBS (potassium ion free PBS containing 0.1% Tween-20).
Into each well was added 49 μL diluted ATP solution in reaction buffer (50 mM HEPES pH 7.4, 50 mM MgCl2, 0.5 mM MnCl2, 0.2 mM Na3VO4, 1 mM DTT), and 1 μL per well of compound to be tested was added, then 50 μL diluted solution of c-Met kinase domain recombinant protein in reaction buffer was added to initiate the reaction, each test was setup with two wells of ATP free control. Reaction was performed in a 37° C. shaker (100 rpm) for 1 hour. Liquid in the wells was discarded, and the plate was washed three times with T-PBS.
Antibody PY99 was added at 100 μL per well (the antibody was 1:500 diluted in T-PBS containing 5 mg/mL BSA), incubated in a 37° C. shaker for 0.5 hour. Liquid in the wells was discarded, and the plate was washed three times with T-PBS.
Goat anti mouse secondary antibody labeled with horseradish peroxidase was added at 100 μL per well (the antibody was 1:2000 diluted in T-PBS containing 5 mg/mL BSA), incubated in a 37° C. shaker for 0.5 hour. Liquid in the wells was discarded, and the plate was washed three times with T-PBS.
Reaction was terminated by adding 50 μL per well of 2M H2SO4, the plate was read at 490 nm using a VERSAmax microplate reader with tunable wavelength.
(§2) Inhibition rate of the sample was calculated using the following equation: […]

[2] = molecular target: T1, c-Met kinase domain recombinant protein; assay: biochemical; conditions: for inhibition at 10 µM: read-out: Average inhibition rate at 10 μM (%); for inhibition at 1 µM: read-out: Average inhibition rate at 1 μM (%); for inhibition at 0.1 µM: read-out: Average inhibition rate at 0.1 μM (%)
Experimental: as §1, with “discarded, then” for “discarded. Plate washing:”, “(PBS” for “(potassium ion free PBS”
Into each well was added 50 μL diluted ATP solution in reaction buffer (50 mM HEPES pH 7.4, 50 mM MgCl2, 0.5 mM MnCl2, 0.2 mM Na3VO4, 1 mM DTT), the final concentration was 5 μM. Test compound was diluted in DMSO to proper concentration, added at 1 μL per well or corresponding level of DMSO (negative control wells), then 49 μL diluted solution of c-Met kinase domain recombinant protein in reaction buffer was added to initiate the reaction, each test was setup with two wells of ATP free control. Reaction was performed in a 37° C. shaker (100 rpm) for 1 hour. The plate was washed three times with T-PBS. Primary antibody PY99 diluted solution was added at 100 μL per well, incubated in a 37° C. shaker for 0.5 hour.
The plate was washed three times with T-PBS. Goat anti mouse secondary antibody labeled with horseradish peroxidase was added at 100 μL per well, incubated in a 37° C. shaker for 0.5 hour. The plate was washed three times with T-PBS. […] Reaction was terminated by adding 50 μL per well of 2M H2SO4, the plate was read at 490 nm using a SPECTRA MAX 190 microplate reader with tunable wavelength.
as §2
IC50 was calculated by fitting the data for a four parameter fit using inhibition curve.

T1 sequence (P08581 1078-1345 limits assumed): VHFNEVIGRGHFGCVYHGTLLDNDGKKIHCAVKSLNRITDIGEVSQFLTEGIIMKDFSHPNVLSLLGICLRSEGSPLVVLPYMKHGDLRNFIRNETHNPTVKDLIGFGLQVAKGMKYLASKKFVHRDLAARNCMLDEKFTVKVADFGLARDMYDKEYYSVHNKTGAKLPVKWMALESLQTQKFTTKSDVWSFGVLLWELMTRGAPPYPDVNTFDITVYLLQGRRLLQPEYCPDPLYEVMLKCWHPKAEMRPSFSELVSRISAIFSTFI

SMILES | inhibition at 10 µM [1] [%] | inhibition at 10 µM [2] [%] | inhibition at 1 µM [2] [%] | inhibition at 0.1 µM [2] [%] | IC50 [2] [nM]
Cn1cc(-c2cnc3ccn(S(=O)(=O)c4ccccc4[N+](=O)[O-])c3c2)cn1 [Compound 1, 1-(2-nitrobenzenesulfonyl)-6-[(1-methyl)-4-pyrazolyl]-1-H-pyrrolo[3,2-b]pyridine] | 88.1 | 88.1 |  |  | 
Cn1cc(-c2cnc3[nH]nc(S(=O)(=O)c4ccccc4[N+](=O)[O-])c3c2)cn1 [Compound 2, 3-(2-nitrobenzenesulfonyl)-5-[(1-methyl)-4-pyrazolyl]-1-H-pyrazolo[3,4-b]pyridine] | 92.8 | 92.8 | 7 |  | 
Cn1cc(-c2cnc3cnn(S(=O)(=O)c4ccccc4[N+](=O)[O-])c3c2)cn1 [Compound 3, 1-(2-nitrobenzenesulfonyl)-6-[(1-methyl)-4-pyrazolyl]-1-H-pyrazolo[4,3-b]pyridine] | 84.6 | 84.6 |  |  | 
Cn1cc(-c2cnc3cnn(S(=O)(=O)c4ccccc4)c3c2)cn1 [Compound 4, 1-benzenesulfonyl-6-[(1-methyl)-4-pyrazolyl]-1-H-pyrazolo[4,3-b]pyridine] | 44.1 | 44.1 |  |  | 
Cn1cc(-c2cnc3cnn(S(=O)(=O)c4cccc(F)c4)c3c2)cn1 [Compound 5, 1-(3-fluorobenzenesulfonyl)-6-[(1-methyl)-4-pyrazolyl]-1-H-pyrazolo[4,3-b]pyridine] | 57.5 | 57.5 | 33.8 | 2.1 | 
Cn1cc(-c2cnc3cnn(S(=O)(=O)c4ccccc4F)c3c2)cn1 [Compound 6, 1-(2-fluorobenzenesulfonyl)-6-[(1-methyl)-4-pyrazolyl]-1-H-pyrazolo[4,3-b]pyridine] | 34.4 | 34.4 |  |  | 
Cn1cc(-c2cnc3cnn(S(=O)(=O)c4ccc(F)cc4)c3c2)cn1 [Compound 7, 1-(4-fluorobenzenesulfonyl)-6-[(1-methyl)-4-pyrazolyl]-1-H-pyrazolo[4,3-b]pyridine] | 40.7 | 40.7 |  |  | 
O=S(=O)(c1c[nH]c2ncc(-c3cccc(Cl)c3)cc12)n1ncc2cccnc21 [Example 109, 1-[(3-chlorophenyl)-1-H-pyrrolo[2,3-b]pyridine-3-sulfonyl]-1-H-pyrazolo[3,4-b]pyridine] |  |  | 40 |  | 
O=S(=O)(c1c[nH]c2ncc(-c3ccc(N4CCOCC4)cc3)cc12)n1ncc2cccnc21 [Example 110, 1-[(4-morpholinylphenyl)-1-H-pyrrolo[2,3-b]pyridine-3-sulfonyl]-1-H-pyrazolo[3,4-b]pyridine] |  |  | 13.5 |  | 
Cn1cc(-c2cnc3cnn(S(=O)(=O)c4cccc5ccccc45)c3c2)cn1 [Example 111, 1-(naphthalene-1-sulfonyl)-6-[(1-methyl)-4-pyrazolyl]-1-H-pyrazolo[4,3-b]pyridine] |  |  | 63.3 | 28.6 | 
Cn1cc(-c2cnc3cnn(S(=O)(=O)c4ccc5ccccc5c4)c3c2)cn1 [Example 112, 1-(naphthalene-2-sulfonyl)-6-[(1-methyl)-4-pyrazolyl]-1-H-pyrazolo[4,3-b]pyridine] |  |  | 48.8 |  | 
Nc1ccc2ncc(S(=O)(=O)n3ncc4ncc(-c5cc(Cl)cc(Cl)c5)cc43)n2c1 [Example 114, 1-[(6-amino-imidazo[1,2-a]pyridine)-3-sulfonyl]-6-(3,5-dichlorophenyl)-1-H-pyrazolo[4,3-b]pyridine] |  |  | 30.4 |  | 
O=[N+]([O-])c1ccc2ncc(S(=O)(=O)n3ncc4ncc(-c5ccc(C(F)(F)F)cc5)cc43)n2c1 [Example 115, 1-[(6-nitro-imidazo[1,2-a]pyridine)-3-sulfonyl]-6-(4-trifluoromethylphenyl)-1-H-pyrazolo[4,3-b]pyridine] |  |  | 95.7 | 46.6 | 
O=[N+]([O-])c1ccc2ncc(S(=O)(=O)n3ncc4ncc(-c5cc(F)c(F)c(F)c5)cc43)n2c1 [Example 116, 1-[(6-nitro-imidazo[1,2-a]pyridine)-3-sulfonyl]-6-(3,4,5-trifluorophenyl)-1-H-pyrazolo[4,3-b]pyridine] |  |  | 84.6 | 70.8 | 3.6 ± 0.6
Nc1ccc2ncc(S(=O)(=O)n3ncc4ncc(-c5ccccc5)cc43)n2c1 [Example 117, 1-[(6-amino-imidazo[1,2-a]pyridine)-3-sulfonyl]-6-phenyl-1-H-pyrazolo[4,3-b]pyridine] |  |  | 15.8 |  | 
Nc1ccc2ncc(S(=O)(=O)n3ncc4ncc(-c5ccc(F)cc5)cc43)n2c1 [Example 118, 1-[(6-amino-imidazo[1,2-a]pyridine)-3-sulfonyl]-6-(4-fluorophenyl)-1-H-pyrazolo[4,3-b]pyridine] |  |  | 75.5 | 62.7 | 
CCCCNc1ccc2ncc(S(=O)(=O)n3ncc4ncc(-c5cnn(C)c5)cc43)n2c1 [Example 119, 1-[(6-n-butylamino-imidazo[1,2-a]pyridine)-3-sulfonyl]-6-[(1-methyl)-4-pyrazolyl]-1-H-pyrazolo[4,3-b]pyridine] |  |  | 26.4 |  | 
CC(=O)Nc1ccc2ncc(S(=O)(=O)n3ncc4ncc(-c5cnn(C)c5)cc43)n2c1 [Example 120, 1-[(6-acetylamino-imidazo[1,2-a]pyridine)-3-sulfonyl]-6-[(1-methyl)-4-pyrazolyl]-1-H-pyrazolo[4,3-b]pyridine] |  |  | 28.7 |  | 
COc1ccc2ncc(S(=O)(=O)n3ncc4ncc(-c5cncc6ccccc56)cc43)n2c1 [Example 122, 1-[(6-methoxy-imidazo[1,2-a]pyridine)-3-sulfonyl]-6-(4-isoquinolinyl)-1-H-pyrazolo[4,3-b]pyridine] |  |  | 100 | 72.9 | 190 ± 32.7
COc1ccc2cc(-c3cnc4cnn(S(=O)(=O)c5cnc6ccc(OC)cn56)c4c3)ccc2c1 [Example 123, 1-[(6-methoxy-imidazo[1,2-a]pyridine)-3-sulfonyl]-6-(6-methoxy-2-naphthyl)-1-H-pyrazolo[4,3-b]pyridine] |  |  | 99.3 | 87 | 51.5 ± 6
COc1ccc2ncc(S(=O)(=O)n3ncc4ncc(-c5cccc(C(F)(F)F)c5)cc43)n2c1 [Example 125, 1-[(6-methoxy-imidazo[1,2-a]pyridine)-3-sulfonyl]-6-(3-trifluoromethylphenyl)-1-H-pyrazolo[4,3-b]pyridine] |  |  | 99.3 | 84.5 | 55.2 ± 5.6
O=S(=O)(c1cnc2ccc(O)cn12)n1ncc2ncc(-c3ccccc3)cc21 [Example 127, 1-[(6-hydroxy-imidazo[1,2-a]pyridine)-3-sulfonyl]-6-phenyl-1H-pyrazolo[4,3-b]pyridine] |  |  | 99 | 93.9 | 30 ± 3.3
CCOC(=O)c1cnc2cnn(S(=O)(=O)c3cnc4ccc(Br)cn34)c2c1 [Example 130, 1-[(6-bromo-imidazo[1,2-a]pyridine)-3-sulfonyl]-6-ethoxycarbonyl-1-H-pyrazolo[4,3-b]pyridine] |  |  | 90.8 | 16.1 | 
O=C(Nc1cnc2cnn(S(=O)(=O)c3cnc4ccc(Br)cn34)c2c1)c1ccccc1 [Example 131, 1-[(6-bromo-imidazo[1,2-a]pyridine)-3-sulfonyl]-6-benzamido-1-H-pyrazolo[4,3-b]pyridine] |  |  | 83.6 | 75.1 | 
COc1cccc(C(=O)Nc2cnc3cnn(S(=O)(=O)c4cnc5ccc(OC)cn45)c3c2)c1 [Example 134, 1-[(6-methoxy-imidazo[1,2-a]pyridine)-3-sulfonyl]-6-(3-methoxybenzamido)-1-H-pyrazolo[4,3-b]pyridine] |  |  | 56.9 | 66.8 | 
